# Measurements as given in article PMC8791944, “GLUT3 inhibitor discovery through in silico ligand screening and in vivo validation in eukaryotic expression systems” (Scientific Reports, 2022).
# Tested on: MCF7 (breast cancer) cells
# Assay: MTT cancer cell viability assay, MCF7
# Assay type: cell-based
# Conditions: Homo sapiens, MCF7, 48 h
# Description: A possible therapeutic application of GLUT3 inhibitors is in oncology, especially for cancers in which GLUT3 is a poor prognosis marker. We tested the effect of GLUT3 inhibitors on the cell viability of several different cancer lines: myeloid leukemia (HL60 and U937), lung cancer (A549), colorectal adenocarcinoma (Caco-2), breast cancer (MCF7), hepatocellular carcinoma (HepG2), and choriocarcinoma (BeWo) cells. GLUT3 inhibitors, at five different concentrations, ranging from 2 to 100 µM, were incubated with cancer cells for 48 h. Then, cell viability was assessed with the MTT assay. […] G3iC and G3iD also affected the leukemia cell lines but at double the concentrations of G3iB and G3iE. […] G3iB had some cytotoxic activity (CC50 < 50 µM) against the highest number of cancer cell lines (HL60, U937, A549, HepG2, and MCF7).
# Cancer cell viability in the presence of GLUT3 inhibitors was assayed using the MTT Cell Viability Kit (Biotium Inc, Freemont, CA) according to manufacturer’s instructions. Cancer cells were grown in the corresponding medium, at 37 °C and 5% CO2 in a humidified incubator. The media (Gibco) for leukemia cells (HL60 and U937), A549, MCF7, BeWo, and HepG2 cells were RPMI 1640, Ham’s F-12K, DMEM:F-12, Ham’s F-12K, and EMEM, respectively, all supplemented with 10% (v/v) fetal bovine serum (HyClone). Caco-2 cells were grown in EMEM supplemented with 20% (v/v) fetal bovine serum. Cells were detached from the culture flasks with Accutase (Innovative Cell Technologies, Inc., San Diego, CA) according to manufacturer’s instructions. Cells were seeded in 96-well plates, at a density of ~ 30,000 cells/well (in 100 µl fresh media) and incubated with varying concentrations of GLUT3 inhibitors for 48 h, at 37 °C and 5% CO2 in a humidified incubator. The inhibitors were dissolved in DMSO, at 100× the final concentration, so that 1 µl of the stock inhibitor concentration was added per well, making the final DMSO concentration 1% (v/v). Therefore, controls for 100% cell viability were cells with 1% (v/v) DMSO without the inhibitors. Controls for 0% cell viability were cells treated with 0.3% (v/v) Tween 20. For MTT assay, 10 µl of MTT reagent was added in each well followed by 3–4 h incubation at 37 °C and 5% CO2 in a humidified incubator. After thoroughly mixing in 200 µl DMSO in each well, the plates were put into a plate reader (BioTek Synergy H1), and the absorbances at 570 nm and 630 nm were measured with Gen5 program (BioTek Inc.). The experimental values represent Abs570 nm-Abs630 nm with each inhibitor condition and control being the average of three wells.
# Supplementary Figure S8. Effect of GLUT3 inhibitors on the viability of various cancer cell lines. Cell viability was determined by MTT assay in A549 (lung cancer), BeWo (choriocarcinoma), Caco-2 (colon cancer), HepG2 (liver cancer), HL-60 (leukemia), MCF7 (breast cancer), and U937 (histiocytic lymphoma) cell lines. GLUT3 inhibitors at concentrations of 2, 5, 10, 20, 50, and 100 µM were incubated with cells in 96-well plates for 48 hours before the addition of the MTT reagent.
row,SMILES,CC50 [µM]
1,"CC(=O)Nc1ccc(S(=O)(=O)Nc2ccc(Nc3cc(N(C)C)nc(C)n3)cc2)cc1 [G3iA, N-(4-{[(4-{[6-(dimethylamino)-2-methylpyrimidin-4-yl]amino}phenyl)amino]sulfonyl}phenyl)acetamide]",> 100
2,"COc1ccccc1-n1c(/C=C/c2ccc(O)cc2)nc2ccc(Br)cc2c1=O [G3iB, 6-bromo-2-[(E)-2-(4-hydroxyphenyl)ethenyl]-3-(2-methoxyphenyl)quinazolin-4(3H)-one]",< 50
3,Cc1cccnc1OC1CCN(c2cc(N3CCCC3CO)ncn2)CC1 (stereo not shown) [G3iC],> 50
4,Cc1cc(NC(=O)CCC2Cc3ccccc3NC2=O)nc(-c2ccccc2)n1 (stereo not shown) [G3iD],> 50
5,"O=C(Nc1cccc(Cl)c1)c1cccc(NC(=O)c2cccc([N+](=O)[O-])c2)c1 [G3iE, N-{3-[(3-chloroanilino)carbonyl]phenyl}-3-nitrobenzamide]",> 100
6,Cc1ccccc1CN(Cc1nnc(C(C)(C)C)o1)c1ccc2nc(O)[nH]c2c1 [G3iF],> 100

# Same assay, conditions: MCF7, 48 h
row,SMILES,CC50 [µM]
1,"COc1ccccc1-n1c(/C=C/c2ccc(O)cc2)nc2ccc(Br)cc2c1=O [G3iB, 6-bromo-2-[(E)-2-(4-hydroxyphenyl)ethenyl]-3-(2-methoxyphenyl)quinazolin-4(3H)-one]",42.6 ± 4.2
